From patent US20200163938A1, “PHARMACEUTICAL COMPOSITION COMPRISING IRON CHELATOR EXHIBITING ANTITUMOR ACTIVITY, ANTIBACTERIAL ACTIVITY AND/OR ANTIVIRUS ACTIVITY, AND HAVING REDUCED SIDE EFFECTS” (priority 2017, published 2020)
Where “and” joins values, the source holds several entries; their conditions need not be identical. Equal entries are not always repeated. Entries after “also recorded” stand apart in the source; their conditions may differ. Structures can show the parent of a compound that is named as a salt. Where two headings read alike, the source gives them in different places.

What was measured:
P. gingivalis Pg W83 = experiment: Antibacterial activity, turbidity and ATP assay; format: cell-based, Porphyromonas gingivalis; details: anaerobic culture 37° C., 18 hours, OD595 nm; FIG. 8
Experimental: A bacterial strain of one of periodontopathic bacteria, gram-negative bacillus, P. gingivalis, used herein was Pg W83. With the use of a liquid medium prepared by adding the chelating agent of each test group to a modified GAM bouillon medium, anaerobic culture (Anaeropack.anaerobic) was performed at 37° C. for 18 hours. Turbidity was found from optical density (OD595 nm). Results were as depicted in FIG. 8.

A549 cells [1] = experiment: Apoptosis induction, TUNEL staining; format: cell-based, human; details: 50 μg/mL, 48 hours, FIG. 11C
Experimental: (§1) Furthermore, the apoptosis-inducing effects of the chelating agents of test groups 6 and 10 on tumors were confirmed. First, 100 μg/mL of the chelating agent of test group 6 or 50 μg/mL of the chelating agent of test group 10 was added to HSC-2 cells in a culture solution. After 48 hours of reaction, TUNEL Assay was carried out. Specifically, apoptosis induction was evaluated by the TUNEL staining method using a MK500 in situ Apoptosis Detection Kit (Takara Bio Inc.).
(§2) Further, the apoptosis-inducing effects of the chelating agent of test group 6 or 10 on A549 cells were confirmed. 100 μg/mL of the chelating agent of test group 6 was added and 50 μg/mL of the chelating agent of test group 10 was added to the cells. After 48 hours of reaction, TUNEL staining was carried out similarly to the above.

MCF-7 cells = experiment: Western blot of apoptosis-related factors; format: cell-based, human; details: MCF-7 cell lysate; FIG. 12
Text: (§3) The cell lysate of each type of cells treated with the chelating agents of test groups 6 and 10 was Western-blotted, and then an increase or a decrease in apoptosis-related factors in treated cells was confirmed using the indicated antibodies. […] Concentration-dependent apoptosis induction was also biochemically confirmed.

A549 cells [2] = experiment: Western blot of apoptosis-related factors; format: cell-based, human; details: A549 cell lysate; FIG. 12
Text: as §3

HSC-2 cells [3] = experiment: Western blot of apoptosis-related factors; format: cell-based, human; details: HSC-2 cell lysate; FIG. 12
Text: as §3

[4] = system: human influenza virus PR8 [A/PUERTORICO/8/34 (H1N1)]; experiment: Suppression of viral infection of MDCK cells; format: cell-based; details: 48 hours
Experimental: MDCK cells (canine renal tubule epithelial cells) were infected with a human influenza virus, and then an effect of suppressing the viral infection of MDCK cells was confirmed. Specifically, PR8 [A/PUERTORICO/8/34 (H1N1)] was adjusted at TCID50=2.81×10^6/mL as the influenza virus, the viral liquid and an equivalent amount of the chelating agent of test group 10 (concentration: 100 μg/mL, 250 μg/mL, 500 μg/mL, or 1000 μg/mL) were mixed and then left to stand at room temperature for 30 minutes. The above-prepared viral liquid was added to MDCK cells. After 48 hours, cells were observed, living cells (specifically, non-infected cells) remaining on the bottom of the culture dish were observed under a microscope. Results were as depicted in FIG. 16A.

[5] = system: subcutaneously-transplanted HCT116 cells; format: in vivo, nude mice (BALB/c nu/nu)
Experimental: Next, the antitumor effects of the chelating agents of test groups 6 and 10 on HCT116-cell subcutaneous transplantation model mice, into which HCT116 cells had been subcutaneously transplanted, were confirmed. Mice prepared herein were nude mice (BALB/c nu/nu, 6 weeks old: Clea Japan Inc.). HCT116 cells were adjusted at 3×10^6/mouse, and then mixed with Matrigel (BD Biosciences) at 1:1. The thus obtained mixture was administered to mice, thereby preparing subcutaneous tumors. The dosage was 200 mg/kg/day (5 times/week administration). […] Tissue sections of HCT116 cells subcutaneously transplanted into the test group 10 administration group were prepared, and then hematoxylin-eosin (HE) staining, and TUNEL staining were performed by the above-mentioned method.

HCT116 cells = experiment: Apoptosis induction, TUNEL staining; format: cell-based, human; details: 6.5 µg/mL, 48 hours, FIG. 11B
Experimental: as §1
as §2, with “Similarly,” for “Further,”, “HCT116” for “A549”, “10” for “100”, “6.5 µg/mL” for “50 μg/mL”

[6] = system: human oral squamous cell carcinoma HSC-2; experiment: Antitumor effects, cell viability (XTT method); format: cell-based; details: FIG. 10
Experimental: (§4) The antitumor effects of the chelating agents of test groups 1 to 10 on each of human lung cancer cell line A549, human liver cancer cell line PLC, and human colon adenocarcinoma cell line HCT116 were confirmed. A549 cells or PLC cells were seeded at 3000 cells/well, and HCT116 cells were seeded at 6000 cells/well. After 24 hours, the fetal bovine serum (FBS) concentration was changed from 10% to 1%, each compound of the test groups 1 to 10 was introduced into medium. Cell viability was confirmed after 48 hours by the Trypan blue method, or, cell viability was confirmed after 48 hours by performing medium exchange and then after 24 hours by performing the XTT method. Deferoxamine mesylate (Desferal (Trademark)) was used as a positive control. Results are as depicted in FIGS. 1A, 1B, 2 and 3.
(§5) Moreover, similarly to the above experiment on antitumor effects, the antitumor effects of the chelating agent of test group 6 or 10 on each of human breast cancer cell line MCF-7 and human oral squamous cell carcinoma HSC-2 were confirmed.

[7] = system: human breast cancer cell line MCF-7; experiment: Antitumor effects, cell viability (XTT method); format: cell-based; details: FIG. 9
Experimental: as §4, §5

HSC-2 cells [8] = experiment: Apoptosis induction, TUNEL staining; format: cell-based, human; details: 50 μg/mL, 48 hours, FIG. 11A
Experimental: as §1

[9] = format: in vivo; parameters: NEFA: unit not given here; details: for Body weight: rats
Experimental: To a negative control group (saline administration; n=6), the same amount of saline was administered. On day 14 after administration, determining life or death, measurement of body weight, physical items (respiration, body temperature, behavior, etc.) were observed. Moreover, blood samples were taken from each group, and the right kidneys and the livers were removed. Results were as depicted in FIG. 5A to 5C and Tables 4 to 9.

[10] = mouse, in vivo, 300 mg/kg
Experimental: To each of 6-week-old Jcl: ICR mice divided into a test group 6 administration group (n=3), a test group 9 administration group (n=3), and a test group 10 administration group (n=3), the chelating agent of each test group was administered at a dose of 300 mg/kg body weight via tail vein. To a positive control group (administration; n=4), deferoxamine mesylate was administered at a dose of 300 mg/kg body weight via tail vein. On day 7 after administration, determining life or death, and physical items (respiration, body temperature, behavior, etc.) were observed.

[11] = rat blood, oral 200 mg/kg, day 14
[12] = rat blood, oral 1000 mg/kg, day 14
[13] = rat blood, oral 1000 mg/kg, day 14, 1000 mg/kg

With `Cl.O=C(O)[C@H](Cc1c[nH]cn1)NCc1ccc(O)c(O)c1O` [Test group 10] the “antimicrobial effects on P. gingivalis (turbidity)” value (P. gingivalis Pg W83) was “exhibited antimicrobial effects”, the “apoptosis-inducing effects (TUNEL staining)” value (shortened to “apoptosis-inducing effects”) (A549 cells [1]) was “green-stained cells (FITC positive cells) indicating apoptosis were confirmed” and the “PARP cleaved fragments and caspase-3-cleaved fragments (Western blot)” value (MCF-7 cells) was “PARP cleaved fragments and caspase-3-cleaved fragments were confirmed”. The “PARP cleaved fragments and caspase-3-cleaved fragments (Western blot)” value (A549 cells [2]) was “PARP cleaved fragments and caspase-3-cleaved fragments were confirmed”, the “PARP cleaved fragments and caspase-3-cleaved fragments (Western blot)” value (HSC-2 cells [3]) was “PARP cleaved fragments and caspase-3-cleaved fragments were confirmed” and the “effect of suppressing viral infection” value ([4]; 500 μg/mL) was “observed to have the effect of suppressing viral infection”. For the same molecule, the “in vivo apoptosis induction in tumor tissue sections (TUNEL staining)” value ([5]; HCT116 subcutaneous tumor tissue, 200 mg/kg/day, FIG. 13B) was “FITC-derived green-stained cell images indicating apoptosis induction were confirmed”, the body weight change ([5]; mouse, in vivo, 200 mg/kg/day) was “no change in body weight was observed” and the “in vivo antitumor effects” value ([5]; subcutaneously-transplanted HCT116 cells, nude mice, 200 mg/kg/day (5 times/week), FIGS. 13A, 14) was “exhibited antitumor effects”. The “apoptosis-inducing effects” value (HCT116 cells) was “green-stained cells indicating apoptosis were confirmed”, the “antitumor effects on HSC-2 (cell viability)” value [6] was “exhibit antitumor effects” and the “antitumor effects on MCF-7 (cell viability)” value [7] was “exhibit antitumor effects”. The “apoptosis-inducing effects” value (HSC-2 cells [8]) was “green-stained cells indicating apoptosis were confirmed”, the ALP [9, 11] was 603 IU/L and the ALT [9, 11] was 33 IU/L. It also gave an AST [9, 11] of 61 IU/L, a BUN [9, 11] of 22.5 mg/dL and a CRE [9, 11] of 0.37 mg/dL. For the same molecule, the Ca [9, 11] was 11.2 mg/dL, the GLU [9, 11] was 278 mg/dL and the K [9, 11] was 6.1 mEQ/L. The LD [9, 11] was 53 IU/L, the NEFA [9, 11] was 111 and the Na [9, 11] was 146 mEQ/L. The T-Bil [9, 11] was 0.06 mg/dL, the TP [9, 11] was 5.5 g/dL and the ALT [9, 12] was 25 IU/L. The CRE [9, 12] was 0.36 mg/dL, the ALP [9, 13] was 592 IU/L and 618 IU/L and the AST [9, 13] was 56 IU/L and 90 IU/L. The BUN [9, 13] was 24.6 mg/dL and 22.8 mg/dL, the Ca [9, 13] was 10.6 mg/dL and 10.5 mg/dL and the GLU [9, 13] was 259 mg/dL and 187 mg/dL. For the same molecule, the K [9, 13] was 4.8 mEQ/L and 4.9 mEQ/L, the Na [9, 13] was 142 mEQ/L and 143 mEQ/L and the TP [9, 13] was 5.4 g/dL and 5.7 g/dL. The Body weight ([9]; oral 200 mg/kg) was 170.83 g and the Body weight ([9]; oral 1000 mg/kg, 1000 mg/kg) was 170.73 g and 185.29 g.
In the case of `CC(=O)N(O)CCCCCNC(=O)CCC(=O)N(O)CCCCCNC(=O)CCC(=O)N(O)CCCCCN` [deferoxamine mesylate, Deferoxamine mesylate], the “effect of suppressing viral infection” value ([4]; 500 μg/mL or 1000 μg/mL, listed as Desferal) is reported as “the effect of suppressing viral infection was not observed; also recorded: unable to inhibit viral infection” and the life or death [10] is reported as “died immediately after administration”.
